Common to all, as to experiment: NCI anticancer screen, dose series, 48 h
Test [1] deals with KM12 colon.
In test [2] the test system is MDA-MB-231 breast.
Test [3] concerns MDA-N.
Test [4] relates to NCI/ADR-RES ovarian.
Test [5] relates to OVCAR-3 ovarian.
For test [6], the system named is OVCAR-4 ovarian.
Test [7] deals with OVCAR-5 ovarian.
The test system of test [8] is PC-3 prostate.
The test system of test [9] is SF-539 CNS.
The test system of test [10] is SK-OV-3 ovarian.
Test [11] has as its system SNB-75 CNS.
Test [12] concerns TK-10 renal.

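Exposure lasted 48 hours, with cells grown in 96-well plates and compounds tested at five concentrations. TGI: total growth inhibition.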 *1 amine or outer side, *2 acyl side, *3 side chain or, on linkers, in order; H or OH if unused. Where a SMILES comes first, the peptide text is derived from it. Bridges are numbered along the chain shown (N, C = ends). [ ]: non-standard residue; d: D form. X59 = COc1c(N[*:1])cccc1C(=O)O[C@H](C(=O)[C@H](C)C(=O)[*:2])C(C)C; X58 = CC(C)C[C@H](C(=O)[*:2])C(C)C(=O)C1CCCN1[*:1]; NMeY = CN[C@@H](Cc1ccc(O)cc1)C(=O)O; Lac = C[C@H](O)C(=O)O Bounds are passed on as bounds.

For `CC(C(=O)O)C1Nc2ccccc2NC1=O` (configuration not stated), the TGI in test [1], in [2], in [3], in test [4], in [5] and in test [6] was above 100 µM each time. The TGI in test [7], in test [8], in [9], in test [10], in [11] and in test [12] was above 100 µM each time.

With `COc1cc(/C=C2\C(=O)N(c3ccc(NC(C)=O)cc3)C(c3ccccc3)S2(=O)=O)cc(OC)c1OC` (configuration not stated), the TGI in test [1], in [2], in test [3], in test [4], in test [5] and in [6] was above 100 µM each time. Further, the TGI in test [7], in test [8], in test [9], in test [10], in test [11] and in test [12] was above 100 µM throughout.

Take `CCNC1=C(NC(=O)c2ccc(OC)cc2)C(=O)c2ccccc2C1=O`: the TGI in [1] is above 100 µM; in [2], above 100 µM; in test [3], above 100 µM; in [4] it was 99.5 µM; in test [5], 87.7 µM; in test [6], above 100 µM. Besides, the TGI in test [7], in test [8], in [9], in [10], in [11] and in test [12] was above 100 µM throughout.

On to `[O-]/[N+](=N/c1ncc(-c2ccccc2)cn1)c1ncc(-c2ccccc2)cn1`, for which the TGI in test [1], in test [2], in [3], in [4], in test [5] and in test [6] was above 100 µM throughout. The TGI in [7], in test [8], in [9], in test [10], in test [11] and in test [12] was above 100 µM each time.

As to `O=C1Nc2ccccc2/C1=N/N1C(=O)/C(=C/c2ccccc2S)N=C1c1ccccc1`, the TGI in test [1], in test [2], in test [3], in [4], in [5] and in test [6] was above 100 µM throughout. Further, the TGI in test [7], in test [8], in test [9], in test [10], in [11] and in test [12] was above 100 µM in each case.

Turning to `O=C(CSc1nc2ccc(I)cc2c(=O)n1Cc1ccccc1)NN1C(=O)CSC1c1ccccc1` (configuration not stated), the TGI in test [1] is 54.9 µM; in test [2] it was 65.6 µM; in test [3], above 100 µM; in test [4], 57.2 µM; in test [5], 32.4 µM; in [6], 76.1 µM. Besides, the TGI is above 100 µM in test [7]; above 100 µM in test [8]; 70.7 µM in [9]; 67.9 µM in [10]; above 100 µM in test [11]; 86 µM in test [12].

As to `COc1ccc(C[C@H]2C(=O)O[C@H](C)[C@H](NC(=O)[C@@H](CC(C)C)C(C)C(=O)C3CCCN3C(=O)[C@H](C)O)C(=O)Nc3cccc(c3OC)C(=O)O[C@@H](C(C)C)C(=O)[C@H](C)C(=O)N[C@@H](CC(C)C)C(=O)N3CCC[C@H]3C(=O)N2C)cc1` (some centres not stated) (H-[Lac][X58]T[X59]LP[NMeY](Me); ester 3-C), the TGI in [1], in test [2], in test [3], in test [4], in test [5] and in test [6] was above 12.5 µM each time. Besides, the TGI in test [7], in test [8], in [9], in test [10], in test [11] and in test [12] was above 12.5 µM in each case.

Take `CN(C(=O)c1cc2c(s1)sc1c(=O)n(C)c3ccccc3c12)c1ccccc1`: the TGI in test [1] was above 100 µM; in [2] it was above 100 µM; in [3], above 100 µM; in test [4] it was 77.1 µM; in test [5], above 100 µM; in [6] it was above 100 µM. Moreover, the TGI in test [7] is above 100 µM; in test [8], above 100 µM; in [9], 59.8 µM; in test [10], above 100 µM; in test [11], above 100 µM; in [12] it was above 100 µM.

On to `CC1=NN(C(=O)CC(=O)Nc2ccc(Cl)cc2)C(=O)C1N=Nc1ccc(S(=O)(=O)c2ccc(N=NC3C(=O)N(C(=O)CC(=O)Nc4ccc(Cl)cc4)N=C3C)cc2)cc1` (configuration not stated), for which the TGI in [1], in test [2], in test [3], in test [4], in test [5] and in test [6] was above 100 µM in each case. Also, the TGI is above 100 µM in [7]; above 100 µM in [8]; above 100 µM in test [9]; above 100 µM in test [10]; above 100 µM in test [11]; 79.1 µM in test [12].

In the case of `CCOC(=O)C(C)c1nc2cc(C(F)(F)F)ccc2[nH]c1=O` (configuration not stated), the TGI in test [1], in test [2], in test [3], in [4], in test [5] and in [6] was above 100 µM each time. Besides, the TGI in [7], in [8], in [9], in test [10], in test [11] and in test [12] was above 100 µM in each case.

As to `O=C(c1ccc(Cl)c(Cl)c1)N(C(=O)N1CCN(c2ccccc2)CC1)S(=O)(=O)c1ccccc1`, the TGI in test [1] was above 100 µM; in test [2], above 100 µM; in test [3], 62.8 µM; in test [4], above 100 µM; in test [5], above 100 µM; in test [6], 65.6 µM. For the same compound, the TGI in test [7] is 64.5 µM; in test [8] it was 93.5 µM; in test [9] it was above 100 µM; in test [10] it was 79.6 µM; in [11] it was above 100 µM; in test [12], above 100 µM.

For the compound `N#CCN1CCN(CC#N)CCN(CC#N)CCN(CC#N)CC1`, the TGI in test [1], in [2], in test [3], in test [4], in [5] and in test [6] was above 100 µM each time. The TGI in test [7], in test [8], in test [9], in [10], in test [11] and in test [12] was above 100 µM in each case.

`Cn1c(-c2cccs2)cc(-c2ccsc2)c1-c1cccs1`: the TGI in test [1], in test [2], in [3], in test [4], in [5] and in test [6] was above 100 µM in each case. Further, the TGI in test [7], in [8], in [9], in test [10], in test [11] and in [12] was above 100 µM in each case.

With `Cc1ccccc1C1CC(=O)CC(c2ccccc2C)C12C(=O)NC(=S)NC2=O` (configuration not stated), the TGI in test [1] was 53.6 µM; in test [2], 90.1 µM; in test [3] it was above 100 µM; in test [4], above 100 µM; in test [5], 82.8 µM; in test [6], above 100 µM. The TGI is above 100 µM in [7]; 70 µM in [8]; 48.9 µM in test [9]; above 100 µM in test [10]; 70.7 µM in test [11]; above 100 µM in test [12].

With `CC1(C)N([O-])[N+](=O)C1(Br)c1ccccc1` (configuration not stated), the TGI in test [1], in [2], in test [3], in test [4], in test [5] and in test [6] was above 100 µM each time. Also, the TGI in test [7], in test [8], in test [9], in test [10], in test [11] and in test [12] was above 100 µM each time.

For `O=S1(=O)c2ccccc2-c2nccc3ccnc1c23`, the TGI in test [1] was above 100 µM; in test [2], 95.7 µM; in test [3], above 100 µM; in test [4] it was above 100 µM; in test [5], above 100 µM; in test [6], above 100 µM. The TGI in [7] is above 100 µM; in test [8] it was above 100 µM; in test [9] it was above 100 µM; in test [10], above 100 µM; in test [11], 83.7 µM; in test [12], above 100 µM.

The values above are taken from PubChem BioAssay (NCI).
